Measured values reported in ChEMBL document CHEMBL5728173, “N4-hydroxycytidine and derivatives and anti-viral uses related thereto” (2020).
pEC50: −log10 of the molar value.

Test: antiviral activity: Several derivatives of EIDD-01931 have shown antiviral activity in screening against various viruses. Activity data is shown in the tables below. Norovirus SARS Coronavirus GT1 Orbani HG23 Vero 76.

Compound	pEC50
O=c1nc(NO)ccn1[C@@H]1O[C@H](CO)[C@H](O)C1O (stereo partly drawn)	< 2.41
CC1(O)[C@@H](O)[C@@H](CO)O[C@H]1n1ccc(NO)nc1=O (stereo partly drawn)	< 3.44

Test: CPE Assay: Primary cytopathic effect (CPE) reduction assay. Four-concentration CPE inhibition assays are performed. Confluent or near-confluent cell culture monolayers in 96-well disposable microplates are prepared.

Compound	pEC50
CC(C)(C)C(=O)OCOP(=O)(OCOC(=O)C(C)(C)C)OC[C@@]1(N=[N+]=[N-])O[C@@H](n2ccc(=O)[nH]c2=O)C(O)[C@H]1O (stereo partly drawn)	4.25
CCCCCCCCC(=O)OC[C@H]1O[C@@H](n2ccc(NO)nc2=O)C(O)[C@H]1O (stereo partly drawn)	6.52
CCCCCCCNC(=O)ONc1ccn([C@@H]2O[C@H](CO)[C@H](O)C2O)c(=O)n1 (stereo partly drawn)	4.54
CC(C)(C)C(=O)OCOP(=O)(OCOC(=O)C(C)(C)C)OC[C@H]1O[C@@H](n2ccc(=O)[nH]c2=O)C(C)(F)[C@H]1O (stereo partly drawn)	4.24
CCOP(=O)(OCC)OC[C@H]1O[C@@H](n2ccc(NO)nc2=O)C(O)[C@H]1O (stereo partly drawn)	< 4.11
CNC(=O)ONc1ccn([C@@H]2O[C@H](CO)[C@H](O)C2O)c(=O)n1 (stereo partly drawn)	4.49
CC1(F)[C@@H](O)[C@@H](CO)O[C@H]1n1ccc(NO)nc1=O (stereo partly drawn)	< 4.12
CCCCCCCCCCCCCCCCOCCCOP(=O)(O)OC[C@H]1O[C@@H](n2ccc(NO)nc2=O)C(O)[C@H]1O (stereo partly drawn)	4.46
C#CC1(O)[C@@H](O)[C@@H](COP(=O)(OCOC(=O)C(C)(C)C)OCOC(=O)C(C)(C)C)O[C@H]1n1ccc(=O)[nH]c1=O (stereo partly drawn)	4.19
CONc1ccn([C@@H]2O[C@H](CO)[C@H](O)C2(C)O)c(=O)n1 (stereo partly drawn)	< 4.12
CCCCCCCNC(=O)ONc1ccn([C@H]2O[C@H](CO)[C@H](O)C2O)c(=O)n1 (stereo partly drawn)	4.42
CCCCCCCCCCCCCCCCNC(=O)ONc1ccn([C@@H]2O[C@H](CO)[C@H](O)C2O)c(=O)n1 (stereo partly drawn)	< 4.11
CC1(O)[C@H]2OP(=O)(Oc3ccccc3)OC[C@H]2O[C@H]1n1ccc(=O)[nH]c1=O (stereo partly drawn)	< 4.11
O=c1ccn([C@@H]2O[C@H](CO)[C@H](O)C23CC3(F)F)c(=O)[nH]1 (stereo partly drawn)	< 4.11
O=c1nc(NO)ccn1[C@@H]1O[C@H](CO)[C@H](O)C1F (stereo partly drawn)	< 4.12
NNc1ccn([C@@H]2O[C@H](CO)[C@H](O)C2O)c(=O)n1 (stereo partly drawn)	< 4.11
O=c1nc(NO)ccn1[C@@H]1O[C@H](COP2(=O)OCc3ccccc3O2)[C@H](O)C1O (stereo partly drawn)	4.97
CCCCCCCNC(=O)OC[C@H]1O[C@@H](n2ccc(NO)nc2=O)C(O)[C@H]1O (stereo partly drawn)	< 4.11
CC1(O)[C@@H](O)[C@@H](CO)O[C@H]1n1ccc(NO)nc1=O (stereo partly drawn)	4.14
O=c1nc(NO)cc[nH]1 [N4-hydroxycytosine]	< 4.11
CN(C)C(=O)ONc1ccn([C@@H]2O[C@H](CO)[C@H](O)C2O)c(=O)n1 (stereo partly drawn)	4.60
